According to patent publication US8053413B2, “Methods for treating sleep disorders by cholecystokinin (CCK) receptor B antagonists” (The Board of Trustees of the University of Illinois, priority 2005, dated 2011):

Tests used:
[1] = test system: sleep apnea (OSAS, central apnea); settings: cited from earlier work; for effect in individuals with obstructive sleep apnea (OSAS) / effect in individuals with central apnea: patients; for effect in individuals with central apnea: primarily central apneas
[2] = test system: spontaneous sleep apnea in the rat; test: Spontaneous sleep apnea in the rat: plethysmograph, EEG and EMG recording after i.p. injection; format: in vivo, Sprague-Dawley rats; settings: for SP apnea index, % of placebo value: spontaneous (SP) apneas, p<0.03; for efficacy against sleep apnea (rate of apneas per hour of NREM and REM sleep): 6 hours polygraphic recording, i.p.
Procedure: Adult, male Sprague-Dawley rats (Sasco-King, Wilmington, Mass.), usually 8 per test group with an average weight of 300 grams, are maintained on a 12-hour light/12-hour dark cycle for one week. The animals are housed in individual cages and given ad libitum access to food and water. Following the one week of acclimatization, animals are subjected to the following surgical procedures.
Acclimatized animals are anesthetized using a mixture of ketamine (80 mg/kg) and xylazine (5 mg/kg) at a volume of 1 ml/kg body weight for the implantation of cortical electrodes for electroencephalogram (EEG) recording and neck muscle electrodes for electromyogram (EMG) recording. The surface of the skull is exposed surgically and cleaned with a 20% solution of hydrogen peroxide followed by a solution of 95% isopropyl alcohol. A dental preparation of sodium fluoride (FLURA-GEL; Saslow Dental, Mt. Prospect, Ill.) is subsequently applied to harden the skull above the parietal cortex and allowed to remain in place for 5 minutes. The fluoride mixture is then removed from the skull above the parietal cortex. The EEG electrodes consisting of four stainless steel machine screws, having leads attached thereto, are threaded into the skull to rest on the dura over the parietal cortex. A thin layer of JUSTI resin cement (Saslow Dental, Mt. Prospect, Ill.) is applied to cover the screw heads (of screws implanted in the skull) and surrounding skull to further promote the adhesion of the implant. EMG electrodes consisting of two ball-shaped wires are inserted into the bilateral neck musculature. All leads (i.e., EEG and EMG leads) are soldered to a miniature connector (39F1401; Newark Electronics, Schaumburg, Ill.). The entire assembly is subsequently fixed to the skull with dental cement.
Physiological parameters from each animal prepared as described herein are recorded on two to five occasions in random order, with recordings for an individual animal separated by at least 3 days. Fifteen minutes prior to each recording an animal receives a systemic injection (1 mL/kg intraperitoneal bolus) of either saline (control) or an active dose of a drug treatment.
Respiration is recorded by placing each animal, unrestrained, inside a single chamber plethysmograph (PLYUNIR/U; Buxco Electronics, Sharon, Conn.; dimension 6 inches×10 inches×6 inches) ventilated with a bias flow of fresh room air at a rate of 2 Liters/minute. A cable plugged onto the animal's connector and passed through a sealed port is used to collect the bioelectrical activity from the head implant.
Sleep and waking states are assessed using conventional software (Benington, et al. (1994) Sleep 17:28-36) to analyze the biparietal EEG and nuchal EMG signals on 10-second epochs. The software discriminates wakefulness (W) as a high frequency low amplitude EEG with a concomitant high EMG tone, NREM sleep by increased spindle and […] activity together with decreased EMG tone, and REM sleep by a […] activity and an absence of EMG tone. Sleep efficiency is measured as the percentage of total recorded epochs staged as NREM or REM sleep.
An accepted physiological animal model of spontaneous sleep apnea in the rat (see Radulovacki & Carley (2002) In: Sleep-Related Breathing Disorder: Experimental Models and Therapeutic Potential (Carley & Radulovacki, eds.) Marcel Dekker: New York, pp. 3-16) is used to assess the effects of test drugs. More specifically, sleep apneas, defined as cessation of respiratory effort for at least 2.5 seconds, are scored for each recording session and associated with the stage of sleep in which they occur (i.e., NREM or REM sleep). The duration requirement of 2.5 seconds represents at least two “missed” breaths, which is therefore analogous to a 10 second apnea duration requirement in humans, which also reflects two to three missed breaths. […]

[3] = test system: CCK-induced depolarization of nodose ganglion neurons; settings: isolated nodose ganglion cells; cited from earlier work
central apneas = settings: rats with frequent central apneas during all sleep stages; cited from earlier work
sleep apnea = settings: cited from earlier work
[4] = individuals with obstructive sleep apnea

## O=C1CC2(CCCC2)CC(=O)N1CCCCN1CCN(c2ncccn2)CC1 [Buspirone]
[1]; one child
  post-surgical apneustic breathing: eliminate post-surgical apneustic breathing
[1]; patients with sleep apnea syndrome
  patients with reduced apnea index: 4 of 5

## Cc1cc(C)c(NC(=O)C[C@H](CC(=O)O)c2cccc3ccccc23)c(C(=O)N2CCC3(CCCC3)CC2)c1 [CR2945]
[2]; 0.5 mg/kg i.p. in DMSO, rats
  SP apnea index, % of placebo value: 42%
[2]; 5.0 mg/kg i.p. in DMSO, rats
  SP apnea index, % of placebo value: 31%
[2]; all four doses 0.005, 0.05, 0.5, 5.0 mg/kg i.p., p<0.04 for each
  REM SP apnea index: significantly reduced
[2]; all sleep stages, rats, systemic injection
  frequency of spontaneous central apnea expression: significantly reduced
[2]; any dose 0.005-5.0 mg/kg i.p., p=0.7
  apnea duration: not affected

## Cc1cccc(NC(=O)N[C@@H]2N=C(c3ccccc3)c3ccccc3N(C)C2=O)c1 [L-365,260]
[3]
  potency in blocking CCK-induced depolarization of nodose ganglion neurons: less potent
[2]; rats
  efficacy against sleep apnea (rate of apneas per hour of NREM and REM sleep): dose-dependent efficacy

## COc1cc(N)c(Cl)cc1C(=O)N[C@H]1CN2CCC1CC2 [R-zacopride]
Central apneas
  apnea frequency: reduce apnea frequency

## CC(=O)Nc1nnc(S(N)(=O)=O)s1 [acetazolamide]
[1]
  effect in individuals with obstructive sleep apnea (OSAS): increase in obstructive apneas
  effect in individuals with central apnea: variable improvement

## Nc1ncnc2c1ncn2[C@@H]1O[C@H](CO)[C@@H](O)[C@H]1O [adenosine]
Sleep apnea
  reduction of apnea in an animal model of sleep apnea: somewhat effective in reducing apnea

## CN1C(=O)[C@@H](NC(=O)c2cc3ccccc3[nH]2)N=C(c2ccccc2)c2ccccc21 [devazepide]
[3]
  potency in blocking CCK-induced depolarization of nodose ganglion neurons: highly potent
[2]; rats
  efficacy against sleep apnea (rate of apneas per hour of NREM and REM sleep): dose-dependent efficacy

## CCN1CC(CCN2CCOCC2)C(c2ccccc2)(c2ccccc2)C1=O (centres unmarked) [doxapram]
[1]; [4]
  average arterial oxygen saturation: does not alter
  length of apneas: decreasing the length of apneas

## CCCCCN(CCCCC)C(=O)C(CCC(=O)O)NC(=O)c1ccc(Cl)c(Cl)c1 (centres unmarked) [lorglumide]
[2]; rats
  efficacy against sleep apnea (rate of apneas per hour of NREM and REM sleep): dose-dependent efficacy

## CN1CCN2c3ncccc3Cc3ccccc3C2C1 (centres unmarked) [mirtazapine]
Central apneas
  apnea frequency: reduce apnea frequency
[1]; one study of OSAS patients
  reduction of apnea frequency: 50%

## C=CCN1CC[C@]23c4c5ccc(O)c4O[C@H]2C(=O)CC[C@@]3(O)[C@H]1C5 [naloxone]
[1]
  effect in individuals with obstructive sleep apnea (OSAS): only slightly helpful

## Cc1nccn1CC1CCc2c(c3ccccc3n2C)C1=O (centres unmarked) [ondansetron]
Central apneas
  apnea frequency: reduce apnea frequency
[1]
  effect in individuals with obstructive sleep apnea (OSAS): failed to demonstrate any effect

## CNCCCC1c2ccccc2C=Cc2ccccc21 [protriptyline]
[1]
  effect in individuals with obstructive sleep apnea (OSAS): variable results
[1]; several small trials in individuals with OSAS
  side effects: frequent and significant side effects

## Cn1c(=O)c2[nH]cnc2n(C)c1=O [theophylline]
[1]
  effect in individuals with obstructive sleep apnea (OSAS): of no use
  effect in individuals with central apnea: may benefit

## CCCCCc1cc(O)c2c(c1)OC(C)(C)[C@@H]1CCC(C)=C[C@@H]21 [Δ9-tetrahydrocannibinol]
Sleep apnea
  reduction of apnea in an animal model of sleep apnea: reduce sleep apneas

## medroxyprogesterone
[1]
  effect in individuals with obstructive sleep apnea (OSAS): no consistent benefit
